Reference: PMC4291083, “Ex Vivo Characterization of a Novel Iodine-123-Labelled Aminomethylchroman as a Potential Agonist Ligand for SPECT Imaging of Dopamine D2/3 Receptors” (International Journal of Molecular Imaging, 2014)
Marks after values point to notes of the source that are not given here.

Experiment: Biodistribution studies in rats
Format: in vivo, Wistar rats
Settings: for uptake ratio Frontal cortex/cereb. / uptake ratio Hippocampus/cereb. / uptake ratio Hypothalamus/cereb. / uptake ratio Midbrain/cereb. / uptake ratio Olfactory b./cereb. / uptake ratio Pons/medulla/cereb. / uptake ratio Striatum/cereb. / uptake ratio Thalamus/cereb. / uptake ratio Pituitary/cereb.: rats; for 123I radioactivity, Blood / 123I radioactivity, Cerebellum / 123I radioactivity, Fat: male rats
Protocol: [^123I]-1 (SA ≥ 37 MBq/nmol) was received after radiolabelling in an isotonic acetate (9% EtOH) buffer (pH 4.8). The solution was passed through a membrane filter (0.2 μm) and was diluted to the proper concentrations. Male Wistar rats (approximately 250 g body weight, obtained from Harlan/Charles River, Zeist, Netherlands) received an intravenous injection in the tail vein of approximately 3.7 MBq/0.4 mL buffer of [^123I]-1 under O2/CO2 anaesthesia. Distribution to the tissue was measured 15 min, 30 min, and 1, 2, 3, 4, and 24 h after the injection to determine the time course of uptake in several organs, including the brain. Four rats were killed at each time point via bleeding by heart puncture (to minimize contribution of blood activity) under O2/CO2 anaesthesia followed by cervical dislocation. Brain regions (cerebellum, frontal and prefrontal cortex, olfactory bulbs, pituitary, medulla with pons, midbrain, striatum, hypothalamus, hippocampus, and thalamus) and various peripheral tissues (heart, lung, liver, spleen, kidney, muscle, fat, and thymus) were quickly excised and weighted. The activity of [^123I] was assayed in a gamma counter, and data was corrected for decay and the amount of radioactivity was presented as percentage of the injected dose, multiplied by the body weight in kilograms, per gram tissue or blood. Selective uptake in the striatum was determined by calculating the ratio of radioactivity in the striatum in relation to that in the cerebellum, since the density of dopamine D2/3 receptor is negligible in this brain area in rats.

Oc1ccc2c(c1)O[C@@H](CNCc1ccc([123I])cc1)CC2 [[^123I]-1]
uptake ratio Frontal cortex/cereb. (15 min after i.v. injection): 2.962 ± 1.817
uptake ratio Hippocampus/cereb. (15 min after i.v. injection): 0.870 ± 0.303
uptake ratio Hypothalamus/cereb. (15 min after i.v. injection): 1.512 ± 0.546
uptake ratio Midbrain/cereb. (15 min after i.v. injection): 3.712 ± 4.715
uptake ratio Olfactory b./cereb. (15 min after i.v. injection): 0.431 ± 0.330
uptake ratio Pons/medulla/cereb. (15 min after i.v. injection): 1.470 ± 0.520
uptake ratio Striatum/cereb. (15 min after i.v. injection): 1.455 ± 1.265
uptake ratio Thalamus/cereb. (15 min after i.v. injection): 1.670 ± 0.908
uptake ratio Pituitary/cereb. (15 min after i.v. injection, only 1 sample): 1.157^*
uptake ratio Frontal cortex/cereb. (30 min after i.v. injection): 1.543 ± 0.142
uptake ratio Hippocampus/cereb. (30 min after i.v. injection): 1.479 ± 0.466
uptake ratio Hypothalamus/cereb. (30 min after i.v. injection): 1.139 ± 0.014
uptake ratio Midbrain/cereb. (30 min after i.v. injection): 1.144 ± 0.051
uptake ratio Olfactory b./cereb. (30 min after i.v. injection): 0.893 ± 0.067
uptake ratio Pituitary/cereb. (30 min after i.v. injection): 2.262 ± 0.233
uptake ratio Pons/medulla/cereb. (30 min after i.v. injection): 1.036 ± 0.212
uptake ratio Striatum/cereb. (30 min after i.v. injection): 1.294 ± 0.061
uptake ratio Thalamus/cereb. (30 min after i.v. injection): 1.325 ± 0.074
mean ratio of striatum/cerebellum binding (30 min to 4 h p.i., i.v., Wistar rats): about 1.3
uptake ratio Frontal cortex/cereb. (1 h after i.v. injection): 1.154 ± 0.095
uptake ratio Hippocampus/cereb. (1 h after i.v. injection): 1.390 ± 0.210
uptake ratio Hypothalamus/cereb. (1 h after i.v. injection): 1.189 ± 0.132
uptake ratio Midbrain/cereb. (1 h after i.v. injection): 1.207 ± 0.109
uptake ratio Olfactory b./cereb. (1 h after i.v. injection): 1.007 ± 0.050
uptake ratio Pituitary/cereb. (1 h after i.v. injection): 2.502 ± 0.883
uptake ratio Pons/medulla/cereb. (1 h after i.v. injection): 1.218 ± 0.109
uptake ratio Striatum/cereb. (1 h after i.v. injection): 1.246 ± 0.103
uptake ratio Thalamus/cereb. (1 h after i.v. injection): 1.243 ± 0.042
uptake ratio Frontal cortex/cereb. (2 h after i.v. injection): 1.145 ± 0.079
uptake ratio Hippocampus/cereb. (2 h after i.v. injection): 1.301 ± 0.047
uptake ratio Hypothalamus/cereb. (2 h after i.v. injection): 1.116 ± 0.085
uptake ratio Midbrain/cereb. (2 h after i.v. injection): 1.168 ± 0.080
uptake ratio Olfactory b./cereb. (2 h after i.v. injection): 1.125 ± 0.089
uptake ratio Pituitary/cereb. (2 h after i.v. injection): 4.399 ± 2.113
uptake ratio Pons/medulla/cereb. (2 h after i.v. injection): 1.205 ± 0.016
uptake ratio Striatum/cereb. (2 h after i.v. injection): 1.155 ± 0.069
uptake ratio Thalamus/cereb. (2 h after i.v. injection): 1.200 ± 0.067
uptake ratio Frontal cortex/cereb. (3 h after i.v. injection): 1.315 ± 0.360
uptake ratio Hippocampus/cereb. (3 h after i.v. injection): 1.294 ± 0.112
uptake ratio Hypothalamus/cereb. (3 h after i.v. injection): 1.326 ± 0.053
uptake ratio Midbrain/cereb. (3 h after i.v. injection): 1.224 ± 0.090
uptake ratio Olfactory b./cereb. (3 h after i.v. injection): 1.314 ± 0.150
uptake ratio Pituitary/cereb. (3 h after i.v. injection): 3.352 ± 1.490
uptake ratio Pons/medulla/cereb. (3 h after i.v. injection): 1.310 ± 0.114
uptake ratio Striatum/cereb. (3 h after i.v. injection): 1.331 ± 0.126
uptake ratio Thalamus/cereb. (3 h after i.v. injection): 1.582 ± 0.101
uptake ratio Frontal cortex/cereb. (4 h after i.v. injection): 0.865 ± 0.580
uptake ratio Hippocampus/cereb. (4 h after i.v. injection): 1.035 ± 0.114
uptake ratio Hypothalamus/cereb. (4 h after i.v. injection): 1.332 ± 0.103
uptake ratio Midbrain/cereb. (4 h after i.v. injection): 1.097 ± 0.086
uptake ratio Olfactory b./cereb. (4 h after i.v. injection): 1.333 ± 0.124
uptake ratio Pituitary/cereb. (4 h after i.v. injection): 3.570 ± 2.544
uptake ratio Pons/medulla/cereb. (4 h after i.v. injection): 1.214 ± 0.133
uptake ratio Striatum/cereb. (4 h after i.v. injection): 1.156 ± 0.080
uptake ratio Thalamus/cereb. (4 h after i.v. injection): 1.351 ± 0.175
uptake ratio Frontal cortex/cereb. (24 h after i.v. injection): 1.818 ± 0.372
uptake ratio Hippocampus/cereb. (24 h after i.v. injection): 1.031 ± 0.090
uptake ratio Hypothalamus/cereb. (24 h after i.v. injection): 1.989 ± 0.574
uptake ratio Midbrain/cereb. (24 h after i.v. injection): 1.426 ± 0.204
uptake ratio Olfactory b./cereb. (24 h after i.v. injection): 1.444 ± 0.163
uptake ratio Pituitary/cereb. (24 h after i.v. injection): 6.021 ± 0.577
uptake ratio Pons/medulla/cereb. (24 h after i.v. injection): 1.278 ± 0.211
uptake ratio Striatum/cereb. (24 h after i.v. injection): 2.023 ± 0.872
uptake ratio Thalamus/cereb. (24 h after i.v. injection): 2.473 ± 0.599
123I radioactivity, Blood (15 min after i.v. injection): 0.291 ± 0.190 %ID × kg/g
123I radioactivity, Blood (30 min after i.v. injection): 0.486 ± 0.291 %ID × kg/g
123I radioactivity, Blood (1 h after i.v. injection): 0.557 ± 0.087 %ID × kg/g
123I radioactivity, Blood (2 h after i.v. injection): 0.446 ± 0.105 %ID × kg/g
123I radioactivity, Blood (3 h after i.v. injection): 0.428 ± 0.082 %ID × kg/g
123I radioactivity, Blood (4 h after i.v. injection): 0.393 ± 0.136 %ID × kg/g
123I radioactivity, Blood (24 h after i.v. injection): 0.081 ± 0.049 %ID × kg/g
123I radioactivity, Cerebellum (15 min after i.v. injection): 0.858 ± 0.384 %ID × kg/g
123I radioactivity, Cerebellum (30 min after i.v. injection): 1.496 ± 0.478 %ID × kg/g
123I radioactivity, Cerebellum (1 h after i.v. injection): 0.627 ± 0.035 %ID × kg/g
123I radioactivity, Cerebellum (2 h after i.v. injection): 0.196 ± 0.037 %ID × kg/g
123I radioactivity, Cerebellum (3 h after i.v. injection): 0.178 ± 0.061 %ID × kg/g
123I radioactivity, Cerebellum (4 h after i.v. injection): 0.087 ± 0.043 %ID × kg/g
123I radioactivity, Cerebellum (24 h after i.v. injection): 0.014 ± 0.002 %ID × kg/g
123I radioactivity, Fat (15 min after i.v. injection): 3.080 ± 2.656 %ID × kg/g
123I radioactivity, Fat (30 min after i.v. injection): 0.674 ± 0.102 %ID × kg/g
123I radioactivity, Fat (1 h after i.v. injection): 0.509 ± 0.024 %ID × kg/g
123I radioactivity, Fat (2 h after i.v. injection): 0.365 ± 0.094 %ID × kg/g
